From paper PMC7654512 (Bioorganic & medicinal chemistry letters, 2019)
One block for each compound: values may come before it.

Experiments:
[1] = Hydrolytic stability of L-Dopa phosphoramidate prodrugs; assay type: physicochemical; conditions: for hydrolytic stability relative to 1b (in words): 37 °C, 31P NMR, pH not stated at the place
[2] = L-Dopa alone, systemic circulation; cited from earlier work

SMILES: CC(=O)NCCOP(=O)([O-])N[C@@H](Cc1ccc(O)c(O)c1)C(=O)[O-].[K+].[K+] [1e]
hydrolytic stability (in words) ([1]; pH 7.4, 37 °C, 31P NMR over 16 h): stable

SMILES: CC(=O)N[C@H](C(=O)[O-])[C@@H](C)OP(=O)([O-])N[C@@H](Cc1ccc(O)c(O)c1)C(=O)[O-].[K+].[K+].[K+] [1a]
hydrolytic stability relative to 1b (in words) [1]: considerably less stable than the serine analog 1b

SMILES: N[C@@H](Cc1ccc(O)c(O)c1)C(=O)O [L-Dopa, Levodopa]
circulating half-life [2]: approximately 1 h

Next, values leading:

hydrolytic stability relative to 1b (in words) [1]: unstable compared to 1b
SMILES: O=C([O-])CCOP(=O)([O-])N[C@@H](Cc1ccc(O)c(O)c1)C(=O)[O-].[K+].[K+].[K+] [1c]

half-life ([1]; buffer, pH 7.4, half-life (t1/2) of hydrolysis, pH 7.4, 37 °C, 31P NMR over 16 h, internal standard TPPO, first-order kinetics): ~10 h
SMILES: CC(=O)N[C@@H](COP(=O)([O-])N[C@@H](Cc1ccc(O)c(O)c1)C(=O)[O-])C(=O)[O-].[K+].[K+].[K+] [1b]
